Measured values reported in publication PMC9516332 (Frontiers in Oncology, 2022).
Like-named read-outs stand apart in the source and are kept apart here.

How the values were obtained:
AP-1060 (ETV6-NTRK3) = assay: Cell viability assay; conditions: read-out: IC50 in cell proliferation assay
134 cancer cell lines = assay: Cell viability assay (ATPlite, 72 hours), IC50 on cancer cell line panel

Compound: COC(=O)N[C@@H](C)CNc1nccc(-c2cn(C(C)C)nc2-c2cc(Cl)cc(NS(C)(=O)=O)c2F)n1 [encorafenib]
- IC50 (AP-1060 (ETV6-NTRK3)): 2520 nM
- IC50 (134 cancer cell lines; HEC-6, read-out: IC50 in cell proliferation assay, HEC-6 cell line (EGFR p.A289V)): 1240 nM
- IC50 (134 cancer cell lines; Homo sapiens, 769-P, read-out: IC50 in cell proliferation assay, cell line 769-P): 1190 nM
- IC50 (134 cancer cell lines; Homo sapiens, 786-0, read-out: IC50 in cell proliferation assay, cell line 786-O): 1390 nM
- IC50 (134 cancer cell lines; Homo sapiens, A 172, read-out: IC50 in cell proliferation assay, cell line A-172): 1780 nM
- IC50 (134 cancer cell lines; Homo sapiens, A204, read-out: IC50 in cell proliferation assay, cell line A-204): 1050 nM
- IC50 (134 cancer cell lines; Homo sapiens, A498, read-out: IC50 in cell proliferation assay, cell line A-498): 527 nM
- IC50 (134 cancer cell lines; Homo sapiens, A549, read-out: IC50 in cell proliferation assay, cell line A-549): 1220 nM
- IC50 (134 cancer cell lines; Homo sapiens, A704, read-out: IC50 in cell proliferation assay, cell line A-704): 5460 nM
- IC50 (134 cancer cell lines; Homo sapiens, A-375, read-out: IC50 in cell proliferation assay, cell line A-375 (BRAF p.V600E)): 9 nM
- IC50 (134 cancer cell lines; Homo sapiens, A-427, read-out: IC50 in cell proliferation assay, cell line A-427): 840 nM
- IC50 (134 cancer cell lines; Homo sapiens, ACHN, read-out: IC50 in cell proliferation assay, cell line ACHN): 624 nM
- IC50 (134 cancer cell lines; Homo sapiens, AN3-CA, read-out: IC50 in cell proliferation assay, cell line AN3-CA (FGFR2 p.N549K)): 623 nM
- IC50 (134 cancer cell lines; Homo sapiens, ASPC1, read-out: IC50 in cell proliferation assay, cell line AsPC-1): 2880 nM
- IC50 (134 cancer cell lines; Homo sapiens, AU565, read-out: IC50 in cell proliferation assay, cell line AU565 (ERBB2 amplification)): 421 nM
- IC50 (134 cancer cell lines; Homo sapiens, BT-20, read-out: IC50 in cell proliferation assay, cell line BT-20): > 31600 nM
- IC50 (134 cancer cell lines; Homo sapiens, BT-474, read-out: IC50 in cell proliferation assay, cell line BT-474 (ERBB2 amplification)): > 31600 nM
- IC50 (134 cancer cell lines; Homo sapiens, BT-549, read-out: IC50 in cell proliferation assay, cell line BT-549): 1020 nM
- IC50 (134 cancer cell lines; Homo sapiens, BXPC-3, read-out: IC50 in cell proliferation assay, cell line BxPC-3): 408 nM
- IC50 (134 cancer cell lines; Homo sapiens, C-33-A, read-out: IC50 in cell proliferation assay, cell line C-33 A): 922 nM
- IC50 (134 cancer cell lines; Homo sapiens, CAL-27, read-out: IC50 in cell proliferation assay, cell line CAL-27): 6980 nM
- IC50 (134 cancer cell lines; Homo sapiens, CCF-STTG1, read-out: IC50 in cell proliferation assay, cell line CCF-STTG1): > 31600 nM
- IC50 (134 cancer cell lines; Homo sapiens, CCRF-CEM, read-out: IC50 in cell proliferation assay, cell line CCRF-CEM): > 31600 nM
- IC50 (134 cancer cell lines; Homo sapiens, COLO 205, read-out: IC50 in cell proliferation assay, cell line COLO 205 (BRAF p.V600E)): 3.32 nM
- IC50 (134 cancer cell lines; Homo sapiens, COLO-829, read-out: IC50 in cell proliferation assay, cell line COLO 829 (BRAF p.V600E)): 9 nM
- IC50 (134 cancer cell lines; Homo sapiens, DLD-1, read-out: IC50 in cell proliferation assay, cell line DLD-1): 1650 nM
- IC50 (134 cancer cell lines; Homo sapiens, DU-4475, read-out: IC50 in cell proliferation assay, cell line DU4475 (BRAF p.V600E)): 8 nM
- IC50 (134 cancer cell lines; Homo sapiens, Daoy, read-out: IC50 in cell proliferation assay, cell line Daoy): > 31600 nM
- IC50 (134 cancer cell lines; Homo sapiens, DoTc2-4510, read-out: IC50 in cell proliferation assay, cell line DoTc2 4510): 3280 nM
- IC50 (134 cancer cell lines; Homo sapiens, EOL1, read-out: IC50 in cell proliferation assay, cell line EoL-1 (FIP1L1-PDGFRA)): 2340 nM
- IC50 (134 cancer cell lines; Homo sapiens, FaDu, read-out: IC50 in cell proliferation assay, cell line FaDu): 964 nM
- IC50 (134 cancer cell lines; Homo sapiens, G-361, read-out: IC50 in cell proliferation assay, cell line G-361 (BRAF p.V600E)): 13 nM
- IC50 (134 cancer cell lines; Homo sapiens, HCC827, read-out: IC50 in cell proliferation assay, cell line HCC827 (EGFR exon19del)): 893 nM
- IC50 (134 cancer cell lines; Homo sapiens, HCC4006, read-out: IC50 in cell proliferation assay, cell line HCC4006 (EGFR exon19del)): > 31600 nM
- IC50 (134 cancer cell lines; Homo sapiens, HCT-15, read-out: IC50 in cell proliferation assay, cell line HCT 15): 2940 nM
- IC50 (134 cancer cell lines; Homo sapiens, HCT-116, read-out: IC50 in cell proliferation assay, cell line HCT 116): 1150 nM
- IC50 (134 cancer cell lines; Homo sapiens, HEC-1, read-out: IC50 in cell proliferation assay, HEC-1 cell line): 1570 nM
- IC50 (134 cancer cell lines; Homo sapiens, HEC-1B, read-out: IC50 in cell proliferation assay, HEC-1-B cell line (EGFR p.A864V)): 2100 nM
- IC50 (134 cancer cell lines; Homo sapiens, HL-60, read-out: IC50 in cell proliferation assay, HL-60 cell line): 1800 nM
- IC50 (134 cancer cell lines; Homo sapiens, HT, read-out: IC50 in cell proliferation assay, HT cell line): > 31600 nM
- IC50 (134 cancer cell lines; Homo sapiens, HT-1080, read-out: IC50 in cell proliferation assay, HT-1080 cell line): 381 nM
- IC50 (134 cancer cell lines; Homo sapiens, Hs746T, read-out: IC50 in cell proliferation assay, Hs 746.T cell line (MET exon14skip + amplification)): 1120 nM
- IC50 (134 cancer cell lines; Homo sapiens, Hs-578T, read-out: IC50 in cell proliferation assay, Hs 578T cell line): 1030 nM
- IC50 (134 cancer cell lines; Homo sapiens, HuTu80, read-out: IC50 in cell proliferation assay, HuTu 80 cell line): 1120 nM
- IC50 (134 cancer cell lines; Homo sapiens, J82, read-out: IC50 in cell proliferation assay, J82 cell line): 949 nM
- IC50 (134 cancer cell lines; Homo sapiens, Jurkat E6.1, read-out: IC50 in cell proliferation assay, Jurkat E6.1 cell line): 1040 nM
- IC50 (134 cancer cell lines; Homo sapiens, K562, read-out: IC50 in cell proliferation assay, K-562 cell line): 27600 nM
- IC50 (134 cancer cell lines; Homo sapiens, KATO III, read-out: IC50 in cell proliferation assay, KATO III cell line (FGFR2 amplification)): 1510 nM
- IC50 (134 cancer cell lines; Homo sapiens, KG-1, read-out: IC50 in cell proliferation assay, KG-1 cell line (FGFR1OP2-FGFR1)): 1440 nM
- IC50 (134 cancer cell lines; Homo sapiens, KLE, read-out: IC50 in cell proliferation assay, KLE cell line): 822 nM
- IC50 (134 cancer cell lines; Homo sapiens, KMS-11, read-out: IC50 in cell proliferation assay, KMS-11 cell line (FGFR3 p.Y373C)): 3390 nM
- IC50 (134 cancer cell lines; Homo sapiens, KU812, read-out: IC50 in cell proliferation assay, Ku812 cell line): 2570 nM
- IC50 (134 cancer cell lines; Homo sapiens, Kasumi 1, read-out: IC50 in cell proliferation assay, Kasumi-1 cell line (KIT p.N822K)): 3020 nM
- IC50 (134 cancer cell lines; Homo sapiens, LC-2-ad, read-out: IC50 in cell proliferation assay, LC-2/ad cell line (CCDC6-RET)): 1530 nM
- IC50 (134 cancer cell lines; Homo sapiens, LNCaP-Clone-FGC, read-out: IC50 in cell proliferation assay, LNCaP clone FGC cell line): 2150 nM
- IC50 (134 cancer cell lines; Homo sapiens, LS174T, read-out: IC50 in cell proliferation assay, LS174T cell line): 1700 nM
- IC50 (134 cancer cell lines; Homo sapiens, LS-411N, read-out: IC50 in cell proliferation assay, LS411N cell line (BRAF p.V600E)): 6 nM
- IC50 (134 cancer cell lines; Homo sapiens, LoVo, read-out: IC50 in cell proliferation assay, LoVo cell line): 2500 nM
- IC50 (134 cancer cell lines; Homo sapiens, MCF7, read-out: IC50 in cell proliferation assay, MCF-7 cell line): > 31600 nM
- IC50 (134 cancer cell lines; Homo sapiens, MDA-MB-231, read-out: IC50 in cell proliferation assay, MDA-MB-231 cell line): 2420 nM
- IC50 (134 cancer cell lines; Homo sapiens, MDA-MB-453, read-out: IC50 in cell proliferation assay, MDA-MB-453 cell line): > 31600 nM
- IC50 (134 cancer cell lines; Homo sapiens, MDA-MB-468, read-out: IC50 in cell proliferation assay, MDA-MB-468 cell line): > 31600 nM
- IC50 (134 cancer cell lines; Homo sapiens, MG-63, read-out: IC50 in cell proliferation assay, MG-63 cell line): > 31600 nM
- IC50 (134 cancer cell lines; Homo sapiens, MIA PaCa-2, read-out: IC50 in cell proliferation assay, MIA PaCa-2 cell line): 1240 nM
- IC50 (134 cancer cell lines; Homo sapiens, MKN-45, read-out: IC50 in cell proliferation assay, MKN45 cell line (MET amplification)): 3810 nM
- IC50 (134 cancer cell lines; Homo sapiens, MOLM-13, read-out: IC50 in cell proliferation assay, MOLM-13 cell line (FLT3 ITD)): 1070 nM
